Source: publication PMC8972196, “A Set of Experimentally Validated Decoys for the Human CC Chemokine Receptor 7 (CCR7) Obtained by Virtual Screening” (Frontiers in Pharmacology, 2022)
Read-outs that look alike come from different tables or passages of the source.

Biological target: T1, human CCR7 (Homo sapiens, UniProt P32248)
T1 construct: expressed in transfected cells
T1 sequence (P32248 25-378): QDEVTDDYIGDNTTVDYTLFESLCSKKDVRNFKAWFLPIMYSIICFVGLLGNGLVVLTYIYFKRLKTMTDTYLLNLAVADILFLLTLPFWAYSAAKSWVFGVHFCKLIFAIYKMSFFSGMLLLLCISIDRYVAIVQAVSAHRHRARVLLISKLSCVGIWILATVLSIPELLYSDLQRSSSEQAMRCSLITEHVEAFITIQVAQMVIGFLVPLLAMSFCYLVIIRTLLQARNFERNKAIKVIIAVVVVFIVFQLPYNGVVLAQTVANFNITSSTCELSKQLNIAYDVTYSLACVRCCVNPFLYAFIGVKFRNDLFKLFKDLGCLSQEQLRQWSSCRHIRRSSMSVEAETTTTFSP
Test: CCL19-induced calcium mobilization assay, U87.CD4 cells expressing CCR7
Assay type: cell-based
Procedure, shortened: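 Calcium mobilization was recorded in U87.CD4 cells stably carrying human CXCR2 (stimulated with CXCL8), CCR7 (stimulated with CCL19) or CCR5. Cells were plated at 20,000 cells/well, cultured overnight at 37°C in 5% CO2, and incubated 45 min at room temperature in the dark before reading.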

[1] = CCL19 induced calcium signaling, read-out: IC50 [μM] block CCL19 induced calcium signaling
[2] = classification as decoy or active on CCR7
[3] = CCL19-induced calcium signaling, read-out: IC50 [μM] block CCL19 induced calcium signaling
[4] = classification of tested compounds as decoy or active

| SMILES | IC50 [1] | Decoy – 0 Active – 1 [2] | IC50 [3] | Decoy – 0 Active – 1 [4] | IC50 |
| --- | --- | --- | --- | --- | --- |
| CN1CCN(CCC2CCCCN2Cc2nc3ccccc3[nH]2)CC1 (centres unmarked) [C275, CN1CCN(CCC2CCCCN2Cc2nc3ccccc3[nH]2)CC1] | > 50 µM | 0 |  |  |  |
| Cc1ccc2c(CCNc3nc4[nH]ncc4c(=O)[nH]3)cn(C)c2c1 [C206, Cc1ccc2c(CCNc3nc4[nH]ncc4c(=O)[nH]3)cn(C)c2c1] | > 50 µM | 0 |  |  |  |
| CC(O)c1ccc(S(=O)(=O)NC(c2ccccc2)c2nccn2C)cc1 (centres unmarked) [C247, CC(c1ccc(cc1)S(=O)(=O)NC(c2ccccc2)c3nccn3C)O] | > 50 µM | 0 |  |  |  |
| Cc1ccc(NC=C2C(=O)CC(c3ccco3)CC2=O)cc1 (centres unmarked) [C071, Cc1ccc(NC=C2C(=O)CC(c3ccco3)CC2=O)cc1] |  |  | > 10 µM | 0 |  |
| CN(C)S(=O)(=O)c1ccc(-c2nnc(C(=O)NCc3ccccc3)o2)cc1 [C089, CN(C)S(=O)(=O)c1ccc(-c2nnc(C(=O)NCc3ccccc3)o2)cc1] |  |  | > 50 µM | 0 |  |
| Cn1ncc(NC(=S)Nc2ccccc2C(F)(F)F)c1C(N)=O [C037, Cn1ncc(NC(=S)Nc2ccccc2C(F)(F)F)c1C(N)=O] |  |  | > 30 µM | 0 |  |
| CC(C)[C@@H]1OCCC[C@@H]1Nc1cc(N2CC[C@H](OCc3ccccn3)C2)ncn1 [C084, CC(C)[C@@H]1OCCC[C@@H]1Nc1cc(N2CC[C@H](OCc3ccccn3)C2)ncn1] |  |  | > 50 µM | 0 |  |
| CC[C@@H](NS(=O)(=O)NCc1ccccc1)c1cc(C)ccn1 [C137, CC[C@@H](NS(=O)(=O)NCc1ccccc1)c1cc(C)ccn1] |  |  | > 50 µM | 0 |  |
| Cc1cccc(N[C@H]2CS(=O)(=O)C[C@H]2OC(=O)c2ccccc2)c1 [C121, Cc1cccc(N[C@H]2CS(=O)(=O)C[C@H]2OC(=O)c2ccccc2)c1] |  |  | > 50 µM | 0 |  |
| COc1ccc(CC(C)(O)CNC(=O)NCc2cccc3ccccc23)cc1 (centres unmarked) [C192, COc1ccc(CC(C)(O)CNC(=O)NCc2cccc3ccccc23)cc1] | > 50 µM | 0 |  |  |  |
| CC(Nc1c(NCc2ccc3c(c2)OCO3)c(=O)c1=O)c1ccccc1 (centres unmarked) [C013, CC(Nc1c(NCc2ccc3c(c2)OCO3)c(=O)c1=O)c1ccccc1] |  |  | > 50 µM | 0 |  |
| CCN1CCCC1C1CCCN1C(=O)CCc1c[nH]c2ccccc12 (centres unmarked) [C282, CCN1CCCC1C1CCCN1C(=O)CCc1c[nH]c2ccccc12] | > 50 µM | 0 |  |  |  |
| NC(=O)CN1CC(CCN2CCCC2=O)c2ccccc21 (centres unmarked) [C214, NC(=O)CN1CC(CCN2CCCC2=O)c2ccccc21] | > 50 µM | 0 |  |  |  |
| Cc1cccnc1C1(CNc2cc(N3CCC[C@H](CO)C3)ncn2)CC1 [C080, Cc1cccnc1C1(CNc2cc(N3CCC[C@H](CO)C3)ncn2)CC1] |  |  | > 50 µM | 0 |  |
| Cc1oc2ccccc2c1CNC(=O)N1CCC(C)(CO)CC1 [C167, Cc1oc2ccccc2c1CNC(=O)N1CCC(C)(CO)CC1] | > 50 µM | 0 |  |  |  |
| CNC(=O)c1ccc(C=CC(=O)N(Cc2ccsc2)C2CC2)cc1 [C059, CNC(=O)c1ccc(C=CC(=O)N(Cc2ccsc2)C2CC2)cc1] |  |  | > 10 µM | 0 |  |
| CC(C)Cc1cc(C(=O)N(Cc2ccccc2Cl)C(C)C)nc(=O)[nH]1 [C142, CC(C)Cc1cc(C(=O)N(Cc2ccccc2Cl)C(C)C)nc(=O)[nH]1] |  |  | > 50 µM | 0 |  |
| C[C@H](c1ccccc1)N(C)CC(=O)Nc1cccc(C(=O)N(C)C)c1 [C133, C[C@H](c1ccccc1)[N@@H+](C)CC(=O)Nc1cccc(C(=O)N(C)C)c1] |  |  | > 50 µM | 0 |  |
| O=C(Nc1ccc(Cl)cc1Cl)N1CC(O)C(F)C1 (centres unmarked) [C183, O=C(Nc1ccc(Cl)cc1Cl)N1CC(O)C(F)C1] | > 50 µM | 0 |  |  |  |

| SMILES | IC50 [1] | Decoy – 0 Active – 1 [2] | IC50 [3] | Decoy – 0 Active – 1 [4] | IC50 |
| --- | --- | --- | --- | --- | --- |
| Cc1ccc(S(=O)(=O)NC(C)C(c2ccccc2)N2CCOCC2)cc1 (centres unmarked) [C264, Cc1ccc(cc1)S(=O)(=O)NC(C)C(c2ccccc2)[NH+]3CCOCC3] |  | 0 |  |  | > 50 µM |
| CCNC(=O)c1cccc(NC(=O)CN(Cc2ccco2)C2CCCC2)c1 [C063, CCNC(=O)c1cccc(NC(=O)C[NH+](Cc2ccco2)C2CCCC2)c1] |  |  | > 10 µM | 0 |  |
| Cc1cc(C)cc(Nc2c(-c3cccc(O)c3)nc3ncccn23)c1 [C182, Cc1cc(C)cc(Nc2c(-c3cccc(O)c3)nc3ncccn23)c1] | > 50 µM | 0 |  |  |  |
| O=C1CC(C(=O)N2CCCC2c2cccs2)CN1c1cccc2ccccc12 (centres unmarked) [C230, O=C1CC(C(=O)N2CCCC2c2cccs2)CN1c1cccc2ccccc12] | > 50 µM | 0 |  |  |  |
| O=C(NCc1ccccn1)c1cn2c(n1)C(=O)N(CC1CC1)CC2 [C095, O=C(NCc1ccccn1)c1cn2c([nH+]1)C(=O)N(CC1CC1)CC2] |  |  | > 50 µM | 0 |  |
| Cc1nccn1-c1ccccc1CNC(=O)CC1NC(=O)c2ccccc21 (centres unmarked) [C223, Cc1nccn1-c1ccccc1CNC(=O)CC1NC(=O)c2ccccc21] | > 50 µM | 0 |  |  |  |
| NC(=O)c1cc(NCC(=O)NCc2ccco2)ccc1Cl [C067, NC(=O)c1cc(NCC(=O)NCc2ccco2)ccc1Cl] |  |  | > 10 µM | 0 |  |
| NC(=O)Nc1cccc(C(=O)NCc2ccccc2Cl)c1 [C173, NC(=O)Nc1cccc(C(=O)NCc2ccccc2Cl)c1] | > 50 µM | 0 |  |  |  |
| Cc1ccc(C(NC(=O)Nc2ccc(C(N)=O)c(Cl)c2)C(C)(C)C)o1 (centres unmarked) [C056, Cc1ccc(C(NC(=O)Nc2ccc(C(N)=O)c(Cl)c2)C(C)(C)C)o1] |  |  | > 10 µM | 0 |  |
| FC(F)(F)c1cccc(NC(=S)NCc2ccccc2C(F)(F)F)c1 [C036, FC(F)(F)c1cccc(NC(=S)NCc2ccccc2C(F)(F)F)c1] |  |  | > 30 µM | 0 |  |
| CCCC1(C(=O)O)CCN(C(=O)c2cccc(C)c2OC)CC1O (centres unmarked) [C207, CCCC1(C(=O)[O-])CCN(C(=O)c2cccc(C)c2OC)CC1O] | > 50 µM | 0 |  |  |  |
| CN(C)C1(CNc2c(N3CCN(Cc4ccccc4Cl)CC3)c(=O)c2=O)CCCC1 [C015, C[NH+](C)C1(CNc2c(N3CC[NH+](Cc4ccccc4Cl)CC3)c(=O)c2=O)CCCC1] |  |  | > 50 µM | 0 |  |
| COc1ccc2ccccc2c1CNc1c(N2CCSCC2)c(=O)c1=O [C004, COc1ccc2ccccc2c1CNc1c(N2CCSCC2)c(=O)c1=O] |  |  | > 50 µM | 0 |  |
| CCC(NS(=O)(=O)c1ccc(C)cc1)c1ccccc1OCC(=O)NC (centres unmarked) [C249, CCC(c1ccccc1OCC(=O)NC)NS(=O)(=O)c2ccc(cc2)C] | > 50 µM | 0 |  |  |  |
| Cc1cccc(C2(C(=O)NC3CCC(=O)N(C)C3)CCCC2)c1 (centres unmarked) [C220, Cc1cccc(C2(C(=O)NC3CCC(=O)N(C)C3)CCCC2)c1] | > 50 µM | 0 |  |  |  |
| COC(=O)c1sccc1Nc1c(NCc2ccc(Cl)cc2)c(=O)c1=O [C009, COC(=O)c1sccc1Nc1c(NCc2ccc(Cl)cc2)c(=O)c1=O] |  |  | > 50 µM | 0 |  |
| Cn1c(C2CC(=O)N(c3cccc(C(F)(F)F)c3)C2)nc2ccccc21 (centres unmarked) [C194, Cn1c(C2CC(=O)N(c3cccc(C(F)(F)F)c3)C2)nc2ccccc21] | > 50 µM | 0 |  |  |  |
| CNC(=O)[C@H](NC1=NS(=O)(=O)c2ccccc21)C(C)C [C157, CNC(=O)[C@H](NC1=NS(=O)(=O)c2ccccc21)C(C)C] |  |  | > 50 µM | 0 |  |
